Results published in PubChem BioAssay (NCI).
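Compound exposure: 48 hours, 5 concentrations, 96-well plates. GI50 is the concentration that inhibits growth by half. TGI: total growth inhibition.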

Key:
Assay in all cases: NCI-60 cell line screen, 48 h
[1] = tested on: 786-0 renal
[2] = tested on: A498 renal
[3] = tested on: A549 NSCLC
[4] = tested on: ACHN renal
[5] = tested on: BT-549 breast
[6] = tested on: CAKI-1 renal
[7] = tested on: CCRF-CEM leukemia
[8] = tested on: COLO 205 colon
[9] = tested on: DU-145 prostate
[10] = tested on: HCC-2998 colon
[11] = tested on: HCT-116 colon
[12] = tested on: HCT-15 colon
[13] = tested on: HL-60(TB) leukemia
[14] = tested on: HOP-62 NSCLC
[15] = tested on: HOP-92 NSCLC
[16] = tested on: HS 578T breast
[17] = tested on: HT29 colon
[18] = tested on: IGROV1 ovarian
[19] = tested on: K-562 leukemia
[20] = tested on: KM12 colon
[21] = tested on: LOX IMVI melanoma
[22] = tested on: M14 melanoma
[23] = tested on: MALME-3M melanoma
[24] = tested on: MCF7 breast
[25] = tested on: MDA-MB-231 breast
[26] = tested on: MDA-MB-435
[27] = tested on: MOLT-4 leukemia
[28] = tested on: NCI-H226 lung
[29] = tested on: NCI-H23 lung
[30] = tested on: NCI-H460 lung
[31] = tested on: NCI-H522 lung
[32] = tested on: NCI/ADR-RES ovarian
[33] = tested on: OVCAR-3 ovarian
[34] = tested on: OVCAR-4 ovarian
[35] = tested on: OVCAR-5 ovarian
[36] = tested on: OVCAR-8 ovarian
[37] = tested on: PC-3 prostate
[38] = tested on: RPMI-8226 leukemia
[39] = tested on: RXF 393 renal
[40] = tested on: SF-268 CNS
[41] = tested on: SF-295 CNS
[42] = tested on: SF-539 CNS
[43] = tested on: SK-MEL-2 melanoma
[44] = tested on: SK-MEL-28 melanoma
[45] = tested on: SK-MEL-5 melanoma
[46] = tested on: SK-OV-3 ovarian
[47] = tested on: SN12C renal
[48] = tested on: SNB-19 CNS
[49] = tested on: SNB-75 CNS
[50] = tested on: SR leukemia
[51] = tested on: SW-620 colon
[52] = tested on: T-47D breast
[53] = tested on: TK-10 renal
[54] = tested on: U251 CNS
[55] = tested on: UACC-257 melanoma
[56] = tested on: UACC-62 melanoma
[57] = tested on: UO-31 renal

Work on `O=C1NC(=O)/C(=C/c2ccc3ncccc3c2)S1` yielded a GI50 [1] of over 25 µM, a TGI [1] of over 25 µM and a GI50 [2] of 0.307 µM. It also gave a TGI [2] of 2.2 µM, a GI50 [3] of over 23.1 µM and a TGI [3] of over 25 µM. The GI50 [4] was over 25 µM, the TGI [4] was over 25 µM and the GI50 [5] was over 25 µM. The TGI [5] was over 25 µM, the GI50 [6] was over 25 µM and the TGI [6] was over 25 µM. It also gave a GI50 [7] of over 25 µM, a TGI [7] of over 25 µM and a GI50 [8] of over 25 µM. The TGI [8] was over 25 µM, the GI50 [9] was over 25 µM and the TGI [9] was over 25 µM. It also gave a GI50 [10] of over 25 µM, a TGI [10] of over 25 µM and a GI50 [11] of over 25 µM. For the same molecule, the TGI [11] was over 25 µM, the GI50 [12] was over 21.1 µM and the TGI [12] was over 25 µM. It also gave a GI50 [13] of 8.14 µM, a TGI [13] of over 25 µM and a GI50 [14] of over 25 µM. For the same molecule, the TGI [14] was over 25 µM, the GI50 [15] was 0.749 µM and the TGI [15] was over 22.8 µM. It also gave a GI50 [16] of 1.96 µM, a TGI [16] of over 18.7 µM and a GI50 [17] of 19.9 µM. For the same molecule, the TGI [17] was over 25 µM, the GI50 [18] was over 6.1 µM and the TGI [18] was over 21.7 µM. The GI50 [19] was over 25 µM, the TGI [19] was over 25 µM and the GI50 [20] was over 25 µM. The TGI [20] was over 25 µM, the GI50 [21] was 13.7 µM and the TGI [21] was over 25 µM. The GI50 [22] was 13.7 µM, the TGI [22] was over 25 µM and the GI50 [23] was 7.11 µM. It also gave a TGI [23] of over 20.7 µM, a GI50 [24] of 2.02 µM and a TGI [24] of over 25 µM. For the same molecule, the GI50 [25] was over 25 µM, the TGI [25] was over 25 µM and the GI50 [26] was over 25 µM. For the same molecule, the TGI [26] was over 25 µM, the GI50 [27] was over 25 µM and the TGI [27] was over 25 µM. It also gave a GI50 [28] of over 25 µM, a TGI [28] of over 25 µM and a GI50 [29] of over 25 µM. The TGI [29] was over 25 µM, the GI50 [30] was 12.6 µM and the TGI [30] was over 25 µM. It also gave a GI50 [31] of over 20.3 µM, a TGI [31] of over 25 µM and a GI50 [32] of over 25 µM. It also gave a TGI [32] of over 25 µM, a GI50 [33] of over 25 µM and a TGI [33] of over 25 µM. For the same molecule, the GI50 [34] was over 25 µM, the TGI [34] was over 25 µM and the GI50 [35] was 8.3 µM. The TGI [35] was over 25 µM, the GI50 [36] was over 25 µM and the TGI [36] was over 25 µM. The GI50 [37] was 17.9 µM, the TGI [37] was over 25 µM and the GI50 [38] was over 25 µM. It also gave a TGI [38] of over 25 µM, a GI50 [39] of over 23.2 µM and a TGI [39] of over 25 µM. The GI50 [40] was over 25 µM, the TGI [40] was over 25 µM and the GI50 [41] was over 25 µM. The TGI [41] was over 25 µM, the GI50 [42] was over 25 µM and the TGI [42] was over 25 µM. For the same molecule, the GI50 [43] was over 25 µM, the TGI [43] was over 25 µM and the GI50 [44] was 17.2 µM. For the same molecule, the TGI [44] was over 25 µM, the GI50 [45] was over 25 µM and the TGI [45] was over 25 µM. It also gave a GI50 [46] of 6.08 µM, a TGI [46] of over 25 µM and a GI50 [47] of over 25 µM. For the same molecule, the TGI [47] was over 25 µM, the GI50 [48] was over 25 µM and the TGI [48] was over 25 µM. The GI50 [49] was 1.4 µM, the TGI [49] was over 25 µM and the GI50 [50] was over 25 µM. The TGI [50] was over 25 µM, the GI50 [51] was over 25 µM and the TGI [51] was over 25 µM. It also gave a GI50 [52] of 1.23 µM, a TGI [52] of over 22.6 µM and a GI50 [53] of 6 µM. It also gave a TGI [53] of over 25 µM, a GI50 [54] of over 25 µM and a TGI [54] of over 25 µM. It also gave a GI50 [55] of over 14.5 µM, a TGI [55] of over 25 µM and a GI50 [56] of 16.3 µM. It also gave a TGI [56] of over 25 µM, a GI50 [57] of 3.51 µM and a TGI [57] of over 25 µM.
